# Where a name gives a salt, the structure may show the parent alone.
# What was measured:
# Assay type in all cases: physicochemical
# [1] = Water solubility by HPLC, external standard method
# Experimental: Using external standard method, the product of example 1 was tested with HPLC, compared with agomelatine crystalline form II.
# [2] = Stability test, incubator at 40° C. for 30 days, HPLC
# Experimental: Chromatographic conditions: C18 column; mobile phase: 10 mmol/L phosphate buffer (adjusted to pH 7.0 with NaOH): acetonitrile=2:7 (v/v); column temperature: 40° C.; detection wavelength: 220 nm; internal standard method was used on the products of examples 1 and 2.
# Solutions of the products at 1 mg/mL were prepared with the mobile phase. 10 μL of each solution was injected into the liquid chromatograph system and chromatograms were recorded. The results of the purity are shown in examples 1 and 2.
# The product of example 1 was placed in an incubator at 40° C. for 30 days to determine its stability with HPLC.
# [3] = Stability test per Chinese Pharmacopoeia (affecting factors, accelerated, long-term); conditions: for Water: initial 5.25%; for Br: initial 23.21%; for Purity of agomelatine hydrobromide hydrate: initial value 99.89%
# Experimental: The method for stability test as described in Chinese Pharmacopoeia was used in this test. • 1) Affecting factors test (in open container for 10 days): high temperature (60° C.), photostability under strong light ([…]), high humidity (92.5% RH at 25° C.) • 2) Accelerated test (in closed container for 6 months): at 40° C., humidity: 75% RH • 3) Long-term test (in closed container for 9 months): at 25° C., humidity: 60% RH
# [4] = Accelerated test: closed container, 6 months, 40° C., 75% RH
# [5] = Affecting factors: high humidity (92.5% RH at 25° C.), open container, 10 days
# [6] = Affecting factors: high temperature (60° C.), open container, 10 days
# [7] = Affecting factors: strong light (45001x), open container, 10 days
# [8] = Long-term test: closed container, 9 months, 25° C., 60% RH
structure (smiles),measurement,setting,value
"COc1ccc2cccc(CCNC(C)=O)c2c1 [AG crystalline form II, N-[2-(7-methoxy-1-naphthyl)ethyl]-acetamide, reference compound]",Agomelatine content,[1]; In 0.1N HCl,0.30 mg/mL
same,Agomelatine content,[1]; In pH 7.0 buffer,0.25 mg/mL
same,Agomelatine content,[1]; In water,0.26 mg/mL
"COc1ccc2cccc(CCNC(C)=O)c2c1 [AG•HBr•H2O, agomelatine hydrobromide hydrate]",stability with HPLC (purity),[2]; Day 0,99.7%
same,stability with HPLC (purity),[2]; Day 5,99.7%
same,stability with HPLC (purity),[2]; Day 10,99.6%
same,stability with HPLC (purity),[2]; Day 30,99.6%
same,Agomelatine content,"[1]; In 0.1N HCl, hydrobromide hydrate",0.37 mg/mL
same,Agomelatine content,"[1]; In pH 7.0 buffer, hydrobromide hydrate",0.31 mg/mL
same,Agomelatine content,"[1]; In water, hydrobromide hydrate",0.33 mg/mL
same,solubility compared with agomelatine per se,"[1]; in water, 0.1N HCl or pH 7.0 buffer",better solubility than agomelatine per se
same,Water,[3]; [4],5.41%
same,Br,[3]; [4],23.07%
same,Purity of agomelatine hydrobromide hydrate,[3]; [4],99.83%
same,Water,[3]; [5],5.45%
same,Br,[3]; [5],23.11%
same,Purity of agomelatine hydrobromide hydrate,[3]; [5],99.83%
same,Water,[3]; [6],5.18%
same,Br,[3]; [6],21.95%
same,Purity of agomelatine hydrobromide hydrate,[3]; [6],99.87%
same,Water,[3]; [7],5.22%
same,Br,[3]; [7],22.61%
same,Purity of agomelatine hydrobromide hydrate,[3]; [7],99.71%
same,Water,[3]; [8],5.18%
same,Br,[3]; [8],22.52%
same,Purity of agomelatine hydrobromide hydrate,[3]; [8],99.84%
same,stability (overall conclusion),"[3]; affecting factors, accelerated and long-term tests",stable

# — patent publication US8729132B2, “Agomelatine hydrobromide hydrate and preparation thereof” (Les Laboratoires Servier, priority 2010, dated 2014)
